{
  "source": "patent US7897559B2",
  "about": "“Dermatological composition and kit containing avermectin compound for treating dermatological conditions” (priority 2000, dated 2011)",
  "key": {"[1]": {"assay": "Safety and tolerability observed in the informal trials of topical ivermectin", "format": "in vivo, human", "conditions": "informal clinical trial, topical application, any body locations", "from_the_text": "It is known that some of the diseases, such as perioral dermatitis, the skin on the eyelids can be affected. To treat eyelids, a high concentration of the medicine should be avoided to prevent irritation of the eyes.\n(§1) Examples 4 to 12 illustrate clinical effectiveness of the method of the present invention."}, "[2]": {"test_system": "transient acantholytic dermatitis, acne miliaris necrotica, acne varioliformis, perioral dermatitis, acneiform eruptions, acne vulgaris, seborrheic dermatitis", "assay": "Informal clinical trial of topical ivermectin across the dermatological conditions", "format": "in vivo, human", "from_the_text": "In a preferred embodiment, ivermectin is used because it is readily available commercially. The concentration of ivermectin in the dermatological composition for the purpose of the present invention can be in a broad range from about 0.05% to 8% weight by volume (w/v).\nThe treatment method using ivermectin dermatological composition for each of these dermatological conditions is similar. Preferably, in an initial treatment of these dermatological conditions the ivermectin dermatological composition can be applied topically from one to several times daily for a period of from about one week to several weeks, to substantially control the condition and clear the lesions. The initial dosage, including frequency of the topical application, ivermectin concentration of the dermatological composition, and the length of the initial treatment period can be determined depending on a specific disease, severity of the disease, and the response of the patient to the medication. For example, acne miliaris necrotica is more difficult to treat, and it frequently requires an initial treatment of three weeks or longer. While perioral dermatitis patients can respond to ivermectin treatment rapidly, and healing of lesions can occur in less than two weeks. After the initial treatment, a maintenance dosage, that has less frequent application, and/or a dermatological composition with less concentration of ivermectin, can be used for maintaining the condition.\nas §1"}, "[3]": {"test_system": "head lice", "conditions": "after a single topical application; cited from earlier work"}, "[4]": {"conditions": "oral dosage of a moderate ivermectin concentration; cited from earlier work"}, "[5]": {"conditions": "informal clinical trial, topical application to affected skin"}},
  "data": [
    {"substance": "ivermectin", "values": [
      {"measurement": "side effects", "setting": "[1]", "result": "no side effects observed in any body locations"},
      {"measurement": "dermal infection of the affected area", "setting": "[2]; [5]", "result": "controls dermal infection of the affected area"},
      {"measurement": "inflammation of the affected area", "setting": "[2]; [5]", "result": "controls inflammation of the affected area"},
      {"measurement": "itching and skin irritation caused by the conditions", "setting": "[2]; [5]", "result": "removes itching and skin irritation"},
      {"measurement": "lesions", "setting": "[2]; [5]", "result": "clears up lesions"},
      {"measurement": "clinical effectiveness", "setting": "[2]; lotion or cream, ivermectin concentration as low as 0.075%", "result": "clinically effective"},
      {"measurement": "curative effect on head lice", "setting": "[3]", "result": "absolute curative effect"},
      {"measurement": "safety in human", "setting": "[4]", "result": "safe in human, without serious adverse side effects"}
    ]}
  ]
}
